According to ChEMBL document CHEMBL5500413, “Discovery of Novel Receptor Tyrosine Kinase-like Orphan Receptor 1 (ROR1) Inhibitors for Cancer Treatment” (J Med Chem, 2024):

Assays:
[1] = target: Inactive tyrosine-protein kinase transmembrane receptor ROR1 (Homo sapiens, UniProt Q01973); assay: Binding affinity to ROR1 kinase domain (453 to 783 residues) (unknown origin) assessed as dissociation constant by SPR analysis
A549 = assay: Antiproliferative activity against human A549 cells harboring high ROR1 expression assessed as inhibition of cell growth incubated for 72 hrs by MTT assay; type: functional, cell-based; conditions: A549, 72 h
MDA-MB-231 = assay: Antiproliferative activity against human MDA-MB-231 cells harboring high ROR1 expression assessed as inhibition of cell growth incubated for 72 hrs by MTT assay; type: functional, cell-based; conditions: MDA-MB-231, 72 h
NCI-H1975 = assay: Antiproliferative activity against human NCI-H1975 cells harboring high ROR1 expression assessed as inhibition of cell growth incubated for 72 hrs by MTT assay; type: functional, cell-based; conditions: NCI-H1975, 72 h

Chain of Inactive tyrosine-protein kinase transmembrane receptor ROR1 (Q01973 whole entry, the tested form may be a part): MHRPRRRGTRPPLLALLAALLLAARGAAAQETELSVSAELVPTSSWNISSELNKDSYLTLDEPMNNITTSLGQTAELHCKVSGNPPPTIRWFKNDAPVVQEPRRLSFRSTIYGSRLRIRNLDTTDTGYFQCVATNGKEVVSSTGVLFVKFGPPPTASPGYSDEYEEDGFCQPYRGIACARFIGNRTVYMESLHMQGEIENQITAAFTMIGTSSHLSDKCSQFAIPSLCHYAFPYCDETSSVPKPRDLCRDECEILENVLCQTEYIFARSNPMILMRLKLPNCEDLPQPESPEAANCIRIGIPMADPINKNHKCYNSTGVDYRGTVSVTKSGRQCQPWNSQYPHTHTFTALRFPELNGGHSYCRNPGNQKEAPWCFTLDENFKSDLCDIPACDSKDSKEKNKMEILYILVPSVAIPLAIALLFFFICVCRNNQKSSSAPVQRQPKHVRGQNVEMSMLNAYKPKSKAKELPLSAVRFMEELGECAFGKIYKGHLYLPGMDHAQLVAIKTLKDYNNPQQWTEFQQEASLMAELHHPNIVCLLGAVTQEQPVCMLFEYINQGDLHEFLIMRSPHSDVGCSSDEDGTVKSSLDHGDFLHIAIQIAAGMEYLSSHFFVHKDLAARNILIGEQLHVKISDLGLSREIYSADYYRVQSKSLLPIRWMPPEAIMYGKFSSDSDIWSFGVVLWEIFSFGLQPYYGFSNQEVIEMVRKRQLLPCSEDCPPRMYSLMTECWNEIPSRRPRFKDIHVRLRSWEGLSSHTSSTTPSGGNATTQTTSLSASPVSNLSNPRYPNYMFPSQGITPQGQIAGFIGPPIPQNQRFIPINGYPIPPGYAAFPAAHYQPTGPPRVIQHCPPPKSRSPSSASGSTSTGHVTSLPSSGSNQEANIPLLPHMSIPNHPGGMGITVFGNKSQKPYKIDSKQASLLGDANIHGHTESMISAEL

SMILES: Cc1ccc(C(=O)Nc2cccc(N(C)C)c2)cc1C#Cc1cnc2cccnn12
- Kd [1]: 8.25 µM
- IC50 (A549): 27.5 µM
- IC50 (MDA-MB-231): 31.3 µM
- IC50 (NCI-H1975): 66.7 µM
